# Test results: patent US9090584B2, “Therapeutic agents for treatment of ocular hypertension” (Allergan, Inc., priority 2010, dated 2015)
# pEC50, pKi: −log10 of the molar value. Read-outs that look alike come from different tables or passages of the source.
# Experiments:
# EP2 [1] = target: T1, EP2 (Homo sapiens, UniProt P43116); assay: EP2 binding
# Experimental: (§1) Data from running binding and activity studies on the compounds of the invention were carried out as described in U.S. Pat. No. 7,427,685, the contents of which are incorporated herein by reference.
# EP4 [2] = target: T2, EP4 (Homo sapiens, UniProt P35408); assay: EP4 binding
# T2 sequence (P35408 whole entry): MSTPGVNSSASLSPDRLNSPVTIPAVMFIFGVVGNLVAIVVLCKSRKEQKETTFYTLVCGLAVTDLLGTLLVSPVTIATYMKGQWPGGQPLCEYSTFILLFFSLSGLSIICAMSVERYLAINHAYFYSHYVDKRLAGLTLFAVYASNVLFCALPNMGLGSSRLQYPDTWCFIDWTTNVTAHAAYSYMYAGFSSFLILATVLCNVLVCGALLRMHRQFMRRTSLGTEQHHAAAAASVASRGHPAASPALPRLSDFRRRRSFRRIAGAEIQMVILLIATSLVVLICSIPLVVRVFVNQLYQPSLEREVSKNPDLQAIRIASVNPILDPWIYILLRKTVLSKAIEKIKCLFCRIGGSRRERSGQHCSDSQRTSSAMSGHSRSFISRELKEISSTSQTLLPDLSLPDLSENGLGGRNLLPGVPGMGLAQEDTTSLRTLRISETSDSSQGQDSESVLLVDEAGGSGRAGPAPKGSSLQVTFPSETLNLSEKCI
# Experimental: as §1
# EP2 [3] = target: T1, EP2; assay: EP2 flipr functional assay; assay type: cell-based
# Experimental: as §1
# EP4 [4] = target: T2, EP4; assay: EP4 flipr functional assay; assay type: cell-based
# Experimental: as §1
# EP2 [5] = target: T1, EP2; assay: EP2 cAMP assay; assay type: cell-based
# Experimental: as §1
# hEP3A = target: T3, hEP3A (Homo sapiens, UniProt P43115); assay: Other receptors functional assay, hEP3A; assay type: cell-based
# T3 sequence (P43115 1-390): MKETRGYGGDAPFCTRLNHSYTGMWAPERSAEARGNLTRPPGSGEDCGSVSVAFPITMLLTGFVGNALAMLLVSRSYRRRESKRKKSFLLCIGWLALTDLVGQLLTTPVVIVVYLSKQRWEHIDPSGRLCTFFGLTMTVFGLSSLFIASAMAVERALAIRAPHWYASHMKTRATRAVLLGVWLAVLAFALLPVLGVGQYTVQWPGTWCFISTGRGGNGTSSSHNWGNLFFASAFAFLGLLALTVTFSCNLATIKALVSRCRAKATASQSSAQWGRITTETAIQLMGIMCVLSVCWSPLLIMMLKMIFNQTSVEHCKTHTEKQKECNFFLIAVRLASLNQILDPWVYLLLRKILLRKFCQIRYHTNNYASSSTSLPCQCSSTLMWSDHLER
# Experimental: as §1
# normotensive dogs = conditions: 0.05%, once daily for 5 days
# Experimental: (§2) U.S. Pat. No. 7,091,231 describes the methods used for these in vivo tests.
# (§3) Isopropyl 5-(2-(3′,4-difluoro-[1,1′-biphenyl]-3-ylcarboxamido)ethyl)thiophene-2-carboxylate was tested in normotensive dogs at 0.05%, dosing once daily for 5 days. […] This compound was also tested in laser-induced hypertensive monkeys, using one single day dose.
# (§4) 2-Hydroxyethyl 5-(2-(3′,4-difluoro-[1,1′-biphenyl]-3-ylcarboxamido)ethyl)thiophene-2-carboxylate was tested in normotensive dogs at 0.05%, dosing once daily for 5 days. […] This compound was also tested in laser-induced hypertensive monkeys, using one single day dose.
# [6] = test system: laser-induced hypertensive monkeys; conditions: 0.05%, one single day dose, maximum at 6 h
# Experimental: as §2, §3, §4
# T1 sequence (P43116 whole entry): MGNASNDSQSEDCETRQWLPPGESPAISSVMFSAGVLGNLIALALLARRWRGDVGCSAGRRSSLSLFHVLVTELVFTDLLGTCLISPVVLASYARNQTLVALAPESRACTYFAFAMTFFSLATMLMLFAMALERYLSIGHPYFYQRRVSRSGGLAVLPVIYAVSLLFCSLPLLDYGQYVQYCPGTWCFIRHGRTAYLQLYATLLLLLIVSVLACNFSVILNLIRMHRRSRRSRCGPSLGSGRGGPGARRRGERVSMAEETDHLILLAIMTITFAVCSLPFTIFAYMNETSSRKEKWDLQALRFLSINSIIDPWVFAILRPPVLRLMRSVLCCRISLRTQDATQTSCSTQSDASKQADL
Structure (SMILES),pKi (EP2 [1]),pKi (EP4 [2]),pEC50 (EP2 [3]),pEC50 (EP4 [4]),pEC50 (EP2 [5]),EC50 (hEP3A) [nM],maximum ocular surface hyperemia (OSH) score (normotensive dogs; maximum at 28 h),maximum intraocular pressure (IOP) decrease from baseline (normotensive dogs; maximum at 78 h) [mmHg],maximum intraocular pressure (IOP) decrease from baseline (percent) (normotensive dogs; maximum at 78 h) [%],maximum IOP decrease from baseline [6] [mmHg],maximum IOP decrease from baseline (percent) [6] [%],maximum intraocular pressure (IOP) decrease from baseline (normotensive dogs; maximum at 52 h) [mmHg],maximum intraocular pressure (IOP) decrease from baseline (percent) (normotensive dogs; maximum at 52 h) [%],maximum ocular surface hyperemia (OSH) score (normotensive dogs; maximum at 54 h)
"O=C(O)c1ccc(CNC(=O)c2cc(-c3cccc(F)c3)ccc2F)s1 [Compound 2, 5-((3′,4-Difluoro-[1,1′-biphenyl]-3-ylcarboxamido)methyl)thiophene-2-carboxylic acid]",6.20,6.07,< 5.00,< 5.00,< 5.00,–,–,–,–,–,–,–,–,–
"O=C(O)c1ccc(CCCNC(=O)c2cc(-c3cccc(F)c3)ccc2F)s1 [Compound 3, 5-(3-(3′,4-Difluoro-[1,1′-biphenyl]-3-ylcarboxamido)propyl)thiophene-2-carboxylic acid]",6.75,5.83,7.51,< 5.00,8.30,3290,–,–,–,–,–,–,–,–
"O=C(NCCc1ccc(C(=O)O)s1)c1cccc(-c2cccc(F)c2)c1 [Compound 5, 5-(2-(3′-Fluoro-[1,1′-biphenyl]-3-ylcarboxamido)ethyl)thiophene-2-carboxylic acid]",6.82,6.13,7.59,5.22,8.10,> 10000,–,–,–,–,–,–,–,–
"CC(C)OC(=O)c1ccc(CCNC(=O)c2cc(-c3cccc(F)c3)ccc2F)s1 [Isopropyl 5-(2-(3′,4-difluoro-[1,1′-biphenyl]-3-ylcarboxamido)ethyl)thiophene-2-carboxylate]",–,–,–,–,–,–,0.8,5.2,32,6.9,19,–,–,–
"O=C(NCCCc1ccc(C(=O)O)s1)c1cc(F)cc(-c2cccc(F)c2)c1 [Compound 7, 5-(3-(3′,5-Difluoro-[1,1′-biphenyl]-3-ylcarboxamido)propyl)thiophene-2-carboxylic acid]",6.90,6.09,7.43,< 5.00,8.30,1420,–,–,–,–,–,–,–,–
"O=C(OCCO)c1ccc(CCNC(=O)c2cc(-c3cccc(F)c3)ccc2F)s1 [2-Hydroxyethyl 5-(2-(3′,4-difluoro-[1,1′-biphenyl]-3-ylcarboxamido)ethyl)thiophene-2-carboxylate]",–,–,–,–,–,–,–,–,–,13.1,31,6.6,50,1.6
"O=C(O)c1ccc(CCCCNC(=O)c2cc(-c3cccc(F)c3)ccc2F)s1 [Compound 4, 5-(4-(3′,4-Difluoro-[1,1′-biphenyl]-3-ylcarboxamido)butyl)thiophene-2-carboxylic acid]",5.16,5.06,< 5.00,< 5.00,< 5.00,–,–,–,–,–,–,–,–,–
"O=C(NCCc1ccc(C(=O)O)s1)c1cc(F)cc(-c2cccc(F)c2)c1 [Compound 6, 5-(2-(3′,5-Difluoro-[1,1′-biphenyl]-3-ylcarboxamido)ethyl)thiophene-2-carboxylic acid]",6.91,6.12,7.96,5.35,8.40,4810,–,–,–,–,–,–,–,–
"O=C(O)c1ccc(CCNC(=O)c2cc(-c3cccc(F)c3)ccc2F)s1 [Compound 1, 5-(2-(3′,4-Difluoro-[1,1′-biphenyl]-3-ylcarboxamido)ethyl)thiophene-2-carboxylic acid]",7.20,6.19,7.31,5.29,8.70,8900,–,–,–,–,–,–,–,–
